{"source": "patent US10774084B2", "about": "“Adenine derivatives and their use as UV-photoprotective agents” (UNIVERZITA PALACKEHO V OLOMOUCI, priority 2015, dated 2020)", "key": {"caspase-3 activity": {"test_system": "caspase-3 activity", "test": "UVB-induced caspase-3 activity in NHDF (Ac-DEVD-AMC)", "assay_type": "cell-based, human", "from_the_text": "Normal human dermal fibroblasts (NHDF) were used as an in vitro model. Cells were isolated from tissue specimens obtained from healthy patients undergoing plastic surgery at the Department of Plastic and Aesthetic Surgery (University Hospital Olomouc). The use of skin tissue was in accordance with the Ethics Committee of the University Hospital and Faculty of Medicine and Dentistry, Palacky University, Olomouc and all patients signed written informed consent. Fibroblasts were used between the 2nd and 4th passage. For all experiments the fibroblasts were seeded onto 6-well plates at a density of 0.5×10^5 cells/cm^2 of cultivation medium (DMEM supplemented with fetal calf serum (10%, v/v), penicillin (100 mg/ml) and streptomycin (100 U/ml)).\nTest compounds included 6-(tetrahydrofuran-2-ylmethylamino)-9-(tetrahydrofuran-2-yl)purine and positive control (rosmarinic acid). […] Intensity of UVB radiation was evaluated before each irradiation by UVB-meter. […] After 4 hours (37° C., 5% CO2) cell damage was evaluated by analysis of caspase-3 activity.\nCaspase-3 activity was evaluated by specific substrate (Ac-DEVD-AMC). […] Fluorescence was measured at (400/505 nm) after 1 hour incubation (37° C., dark). Protein content was analyzed spectrophotometrically by Bradford protein assay (INFINITE M200, Tecan, Switzerland). […]"}, "[1]": {"test_system": "Normal human dermal fibroblasts (NHDF)", "test": "In vitro UVA/UVB photoprotection test on NHDF (Example 9)", "assay_type": "cell-based", "from_the_text": "Normal human dermal fibroblasts (NHDF) were used as an in vitro model. Cells were isolated from tissue specimens obtained from healthy patients undergoing plastic surgery at the Department of Plastic and Aesthetic Surgery (University Hospital Olomouc). The use of skin tissue was in accordance with the Ethics Committee of the University Hospital and Faculty of Medicine and Dentistry, Palacky University, Olomouc and all patients signed written informed consent. Fibroblasts were used between the 2nd and 4th passage. For all experiments the fibroblasts were seeded onto 96-well plates at a density of 0.8×10^5 cells/ml (0.2 ml per well) of cultivation medium (DMEM supplemented with fetal calf serum (10%, v/v), penicillin ([…]) and streptomycin (100 U/ml)). Test substances included compounds number 1, 3, 9, 15 and 20. Compounds were dissolved in DMSO and then diluted in serum free medium (DMEM supplemented with penicillin ([…]) and streptomycin (100 U/ml)). After 24 h incubation was cultivation medium changed to serum free medium containing test compound or DMSO (negative control). The final applied concentrations range was 3.9-31.3 μmol/ll. As a control serum free medium supplemented with appropriate concentration of DMSO (0.5%, v/v) was used. Rosmarinic acid was used as positive control. Each test compound was in parallel applied on two 96-well plates with NHDF. After 60 minutes incubation medium with test compound was discarded, cells were washed two-times with PBS and PBS supplemented with glucose (1 mg/ml) was applied. To study UVA photoprotection, a plate was exposed to a cytotoxic dose of UVA radiation (7.5 J/cm^2) using a solar simulator SOL 500 (Dr. Hoenle Technology, Germany) equipped with a H1 filter transmitting wavelengths of 320-400 nm. To study UVB photoprotection, a plate was exposed to a cytotoxic dose of UVB radiation (150 mJ/cm^2) using the solar simulator equipped with a H2 filter transmitting wavelengths of 295-320 nm. Intensity of UVA or UVB radiation was evaluated before each irradiation by UVA- or UVB-meter. Control (non-irradiated) plates were for the period of irradiation incubated in dark. After UVA or UVB exposure PBS with glucose was discarded and serum free medium was applied. After 24 hours (37° C., 5% CO2) cell damage was evaluated by neutral red (NR) incorporation into viable cells. Medium was discarded and NR solution (0.03% w/v, PBS) was applied. After 60 minutes NR solution was discarded, cells were fixed with a mixture of formaldehyde (0.5%, v/v) and CaCl2 (1%, m/v) in ratio 1:1 and then NR was dissolved in methanol (50%, v/v) with acetic acid (1%, v/v). After 5 minutes of intensive shaking absorbance was measured at 540 nm. Experiments were performed in four independent repetitions with use of cells from four donors to minimize individual sensitivity of donor cells. Photoprotective effect was evaluated by comparison of experimental data (absorbance) of test compounds with a positive control and a negative control (according to the following equation:\n[formula] • As . . . absorbance of sample (cells pre-incubated with test compounds in serum free medium and irradiated) • Anc . . . absorbance of negative control (cells pre-incubated with s DMSO in serum free medium and non-irradiated=incubated in dark) • Apc . . . absorbance of positive control (cells pre-incubated with s DMSO in serum free medium and irradiated)"}}}
{"smiles": "c1nc(NCC2CCCO2)c2ncn(C3CCCO3)c2n1", "note": "(stereo not shown) [Compound 1, 6-(tetrahydrofuran-2-ylmethylamino)-9-(tetrahydrofuran-2-yl)purine]", "values": [{"measurement": "effect on UVB-induced activity of caspase-3 (in words)", "setting": "caspase-3 activity; UVB, NHDF", "value": "decreased"}, {"measurement": "effect on caspase-3 activity in non-irradiated cells (in words)", "setting": "caspase-3 activity; non-irradiated NHDF, 2.5-20 μmol/l", "value": "did not showed negative effect"}]}
{"smiles": "OCc1ccc(CNc2ncnc3c2ncn3C2CCCO2)o1", "note": "(stereo not shown) [Compound 3, 6-(5-hydroxymethylfuran-2-ylmethylamino)-9-(tetrahydrofuran-2-yl)purine]", "values": [{"measurement": "Protection (%)", "setting": "[1]; UVA 7.5 J/cm^2, 3.9 μmol/l", "value": 14.7, "unit": "%"}, {"measurement": "Protection (%)", "setting": "[1]; UVA 7.5 J/cm^2, 7.8 μmol/l", "value": 16.3, "unit": "%"}, {"measurement": "Protection (%)", "setting": "[1]; UVA 7.5 J/cm^2, 15.6 μmol/l", "value": 24.6, "unit": "%"}, {"measurement": "Protection (%)", "setting": "[1]; UVA 7.5 J/cm^2, 31.3 μmol/l", "value": 25.8, "unit": "%"}, {"measurement": "Protection (%)", "setting": "[1]; UVB 150 mJ/cm^2, 3.9 μmol/l", "value": 43.6, "unit": "%"}, {"measurement": "Protection (%)", "setting": "[1]; UVB 150 mJ/cm^2, 7.8 μmol/l", "value": 53.1, "unit": "%"}, {"measurement": "Protection (%)", "setting": "[1]; UVB 150 mJ/cm^2, 15.6 μmol/l", "value": 47.4, "unit": "%"}, {"measurement": "Protection (%)", "setting": "[1]; UVB 150 mJ/cm^2, 31.3 μmol/l", "value": 48.4, "unit": "%"}]}
{"smiles": "c1csc(CNc2ncnc3c2ncn3C2CCCO2)c1", "note": "(stereo not shown) [Compound 9, 6-(thiophen-2-ylmethylamino)-9-(tetrahydrofuran-2-yl)purine]", "values": [{"measurement": "Protection (%)", "setting": "[1]; UVA 7.5 J/cm^2, 3.9 μmol/l", "value": 41.3, "unit": "%"}, {"measurement": "Protection (%)", "setting": "[1]; UVA 7.5 J/cm^2, 7.8 μmol/l", "value": 44.4, "unit": "%"}, {"measurement": "Protection (%)", "setting": "[1]; UVA 7.5 J/cm^2, 15.6 μmol/l", "value": 45.7, "unit": "%"}, {"measurement": "Protection (%)", "setting": "[1]; UVA 7.5 J/cm^2, 31.3 μmol/l", "value": 52.0, "unit": "%"}, {"measurement": "Protection (%)", "setting": "[1]; UVB 150 mJ/cm^2, 3.9 μmol/l", "value": 34.9, "unit": "%"}, {"measurement": "Protection (%)", "setting": "[1]; UVB 150 mJ/cm^2, 7.8 μmol/l", "value": 62.6, "unit": "%"}, {"measurement": "Protection (%)", "setting": "[1]; UVB 150 mJ/cm^2, 15.6 μmol/l", "value": 64.4, "unit": "%"}, {"measurement": "Protection (%)", "setting": "[1]; UVB 150 mJ/cm^2, 31.3 μmol/l", "value": 68.7, "unit": "%"}]}
{"smiles": "Clc1nc(NCc2ccco2)c2ncn(C3CCCO3)c2n1", "note": "(stereo not shown) [Compound 15, 2-chloro-6-furfurylamino-9-(tetrahydrofuran-2-yl)purine]", "values": [{"measurement": "Protection (%)", "setting": "[1]; UVA 7.5 J/cm^2, 3.9 μmol/l", "value": 24.5, "unit": "%"}, {"measurement": "Protection (%)", "setting": "[1]; UVA 7.5 J/cm^2, 7.8 μmol/l", "value": 29.9, "unit": "%"}, {"measurement": "Protection (%)", "setting": "[1]; UVA 7.5 J/cm^2, 15.6 μmol/l", "value": 33.0, "unit": "%"}, {"measurement": "Protection (%)", "setting": "[1]; UVA 7.5 J/cm^2, 31.3 μmol/l", "value": 35.3, "unit": "%"}, {"measurement": "Protection (%)", "setting": "[1]; UVB 150 mJ/cm^2, 3.9 μmol/l", "value": 39.9, "unit": "%"}, {"measurement": "Protection (%)", "setting": "[1]; UVB 150 mJ/cm^2, 7.8 μmol/l", "value": 55.2, "unit": "%"}, {"measurement": "Protection (%)", "setting": "[1]; UVB 150 mJ/cm^2, 15.6 μmol/l", "value": 53, "unit": "%"}, {"measurement": "Protection (%)", "setting": "[1]; UVB 150 mJ/cm^2, 31.3 μmol/l", "value": 60.2, "unit": "%"}]}
{"smiles": "Clc1nc(NCC2CCCO2)c2ncn(C3CCCO3)c2n1", "note": "(stereo not shown) [Compound 20, 2-chloro-6-(tetrahydrofuran-2-ylmethylamino)-9-(tetrahydrofuran-2-yl)purine]", "values": [{"measurement": "Protection (%)", "setting": "[1]; UVA 7.5 J/cm^2, 3.9 μmol/l", "value": 5.9, "unit": "%"}, {"measurement": "Protection (%)", "setting": "[1]; UVA 7.5 J/cm^2, 7.8 μmol/l", "value": 10.7, "unit": "%"}, {"measurement": "Protection (%)", "setting": "[1]; UVA 7.5 J/cm^2, 15.6 μmol/l", "value": 11.5, "unit": "%"}, {"measurement": "Protection (%)", "setting": "[1]; UVA 7.5 J/cm^2, 31.3 μmol/l", "value": 16.2, "unit": "%"}, {"measurement": "Protection (%)", "setting": "[1]; UVB 150 mJ/cm^2, 3.9 μmol/l", "value": 39.8, "unit": "%"}, {"measurement": "Protection (%)", "setting": "[1]; UVB 150 mJ/cm^2, 7.8 μmol/l", "value": 58.3, "unit": "%"}, {"measurement": "Protection (%)", "setting": "[1]; UVB 150 mJ/cm^2, 15.6 μmol/l", "value": 58.2, "unit": "%"}, {"measurement": "Protection (%)", "setting": "[1]; UVB 150 mJ/cm^2, 31.3 μmol/l", "value": 60, "unit": "%"}]}
